Results: ChEMBL document CHEMBL4118077, “Synthesis of thiazole linked indolyl-3-glyoxylamide derivatives as tubulin polymerization inhibitors” (Eur J Med Chem, 2017)
Active and inactive are the calls of the source. The rule behind the calls is not given here.

Key:
[1] = test system: DU-145; assay: Cell cycle arrest in human DU145 cells assessed as accumulation at subG1 phase at 400 nM after 24 hrs by propidium iodide staining based flow cytometry (reference value: 0.43%); format: functional
[2] = test system: DU-145; assay: Induction of mitochondrial membrane potential loss in human DU145 cells assessed as depolarized cell population at 200 nM after 24 hrs by JC-1 staining based flow cytometry (reference value: 22.28%); format: functional
[3] = test system: DU-145; assay: Induction of apoptosis in human DU145 cells assessed as late apoptotic cells at 400 nM after 24 hrs by Annexin V-FITC/propidium iodide staining based flow cytometry (reference value: 6.55%); format: functional
[4] = test system: DU-145; assay: Antiproliferative activity against human DU145 cells after 48 hrs by MTT assay; format: functional, cell-based; conditions: DU-145, 48 h
[5] = test system: RWPE-1; assay: Cytotoxicity against human RWPE1 cells assessed as reduction in cell viability after 48 hrs by MTT assay; format: cell-based; conditions: RWPE-1, 48 h
[6] = test system: DU-145; assay: Induction of apoptosis in human DU145 cells assessed as early apoptotic cells at 200 nM after 24 hrs by Annexin V-FITC/propidium iodide staining based flow cytometry (reference value: 5.92%); format: functional
[7] = species on record: Sus scrofa; assay: Inhibition of porcine brain tubulin polymerization at 5 uM measured for 1 hr by fluorescence assay relative to control
[8] = test system: DU-145; assay: Cell cycle arrest in human DU145 cells assessed as accumulation at S phase at 400 nM after 24 hrs by propidium iodide staining based flow cytometry (reference value: 14.8%); format: functional
[9] = test system: DU-145; assay: Antimigratory activity against human DU145 cells assessed as inhibition of migration to scratch area at 100 nM after 24 hrs by phase contrast microscopic method relative to control; format: functional; conditions: DU-145, 24 h
[10] = test system: DU-145; assay: Cell cycle arrest in human DU145 cells assessed as accumulation at G2/M phase at 100 nM after 24 hrs by propidium iodide staining based flow cytometry (reference value: 25.88%); format: functional
[11] = test system: DU-145; assay: Induction of apoptosis in human DU145 cells assessed as necrotic cells at 200 nM after 24 hrs by Annexin V-FITC/propidium iodide staining based flow cytometry (reference value: 1.82%); format: functional
[12] = test system: DU-145; assay: Cell cycle arrest in human DU145 cells assessed as accumulation at G0/G1 phase at 400 nM after 24 hrs by propidium iodide staining based flow cytometry (reference value: 63.77%); format: functional
[13] = test system: DU-145; assay: Cell cycle arrest in human DU145 cells assessed as accumulation at subG1 phase at 200 nM after 24 hrs by propidium iodide staining based flow cytometry (reference value: 0.43%); format: functional
[14] = test system: PC-3; assay: Antiproliferative activity against human PC3 cells after 48 hrs by MTT assay; format: functional, cell-based; conditions: PC-3, 48 h
[15] = test system: DU-145; assay: Induction of mitochondrial membrane potential loss in human DU145 cells assessed as depolarized cell population at 400 nM after 24 hrs by JC-1 staining based flow cytometry (reference value: 22.28%); format: functional
[16] = test system: DU-145; assay: Cell cycle arrest in human DU145 cells assessed as accumulation at S phase at 200 nM after 24 hrs by propidium iodide staining based flow cytometry (reference value: 14.8%); format: functional
[17] = test system: DU-145; assay: Cell cycle arrest in human DU145 cells assessed as accumulation at G0/G1 phase at 100 nM after 24 hrs by propidium iodide staining based flow cytometry (reference value: 63.77%); format: functional
[18] = test system: DU-145; assay: Antimigratory activity against human DU145 cells assessed as inhibition of migration to scratch area at 400 nM after 24 hrs by phase contrast microscopic method relative to control; format: functional; conditions: DU-145, 24 h
[19] = test system: DU-145; assay: Induction of apoptosis in human DU145 cells assessed as live cells at 200 nM after 24 hrs by Annexin V-FITC/propidium iodide staining based flow cytometry (reference value: 85.71%); format: functional
[20] = test system: DU-145; assay: Antimigratory activity against human DU145 cells assessed as inhibition of migration to scratch area at 200 nM after 24 hrs by phase contrast microscopic method relative to control; format: functional; conditions: DU-145, 24 h
[21] = test system: DU-145; assay: Cell cycle arrest in human DU145 cells assessed as accumulation at G2/M phase at 200 nM after 24 hrs by propidium iodide staining based flow cytometry (reference value: 25.88%); format: functional
[22] = test system: DU-145; assay: Induction of morphological changes in human DU145 cells assessed as cell shrinkage after 48 hrs by acridine orange/ethidium bromide staining based fluorescence microscopic method; format: functional
[23] = test system: DU-145; assay: Induction of apoptosis in human DU145 cells assessed as early apoptotic cells at 400 nM after 24 hrs by Annexin V-FITC/propidium iodide staining based flow cytometry (reference value: 5.92%); format: functional
[24] = test system: DU-145; assay: Cell cycle arrest in human DU145 cells assessed as accumulation at G2/M phase after 24 hrs by propidium iodide staining based flow cytometry; format: functional
[25] = test system: DU-145; assay: Induction of mitochondrial membrane potential loss in human DU145 cells after 24 hrs by JC-1 staining based flow cytometry; format: functional, cell-based
[26] = test system: DU-145; assay: Cell cycle arrest in human DU145 cells assessed as accumulation at G2/M phase at 400 nM after 24 hrs by propidium iodide staining based flow cytometry (reference value: 25.88%); format: functional
[27] = test system: DU-145; assay: Antimigratory activity against human DU145 cells assessed as inhibition of migration to scratch area after 24 hrs by phase contrast microscopic method; format: functional, cell-based
[28] = test system: DU-145; assay: Induction of apoptosis in human DU145 cells assessed as late apoptotic cells at 200 nM after 24 hrs by Annexin V-FITC/propidium iodide staining based flow cytometry (reference value: 6.55%); format: functional
[29] = test system: DU-145; assay: Induction of morphological changes in human DU145 cells assessed as apoptotic body formation after 48 hrs by acridine orange/ethidium bromide staining based fluorescence microscopic method; format: functional, cell-based
[30] = test system: DU-145; assay: Induction of morphological changes in human DU145 cells assessed as nuclear fragmentation at 100 to 200 nM after 48 hrs by DAPI staining based fluorescence microscopic method; format: functional, cell-based
[31] = test system: DU-145; assay: Induction of apoptosis in human DU145 cells after 24 hrs by Annexin V-FITC/propidium iodide staining based flow cytometry; format: functional, cell-based
[32] = test system: DU-145; assay: Induction of morphological changes in human DU145 cells assessed as nuclear condensation at 100 to 200 nM after 48 hrs by DAPI staining based fluorescence microscopic method; format: functional, cell-based
[33] = test system: DU-145; assay: Cell cycle arrest in human DU145 cells assessed as accumulation at subG1 phase at 100 nM after 24 hrs by propidium iodide staining based flow cytometry (reference value: 0.43%); format: functional
[34] = test system: DU-145; assay: Cell cycle arrest in human DU145 cells assessed as accumulation at S phase at 100 nM after 24 hrs by propidium iodide staining based flow cytometry (reference value: 14.8%); format: functional
[35] = test system: A549; assay: Antiproliferative activity against human A549 cells after 48 hrs by MTT assay; format: functional, cell-based; conditions: A549, 48 h
[36] = test system: DU-145; assay: Induction of apoptosis in human DU145 cells assessed as necrotic cells at 400 nM after 24 hrs by Annexin V-FITC/propidium iodide staining based flow cytometry (reference value: 1.82%); format: functional
[37] = test system: DU-145; assay: Cell cycle arrest in human DU145 cells assessed as accumulation at G0/G1 phase at 200 nM after 24 hrs by propidium iodide staining based flow cytometry (reference value: 63.77%); format: functional
[38] = test system: HCT-15; assay: Antiproliferative activity against human HCT15 cells after 48 hrs by MTT assay; format: functional, cell-based; conditions: HCT-15, 48 h
[39] = test system: DU-145; assay: Induction of apoptosis in human DU145 cells assessed as live cells at 400 nM after 24 hrs by Annexin V-FITC/propidium iodide staining based flow cytometry (reference value: 85.71%); format: functional
[40] = test system: DU-145; assay: Induction of mitochondrial membrane potential loss in human DU145 cells assessed as intact membrane cell population at 200 nM after 24 hrs by JC-1 staining based flow cytometry (reference value: 77.24%); format: functional
[41] = test system: DU-145; assay: Induction of morphological changes in human DU145 cells assessed as membrane blebbing after 48 hrs by acridine orange/ethidium bromide staining based fluorescence microscopic method; format: functional, cell-based
[42] = test system: DU-145; assay: Induction of mitochondrial membrane potential loss in human DU145 cells assessed as intact membrane cell population at 400 nM after 24 hrs by JC-1 staining based flow cytometry (reference value: 77.24%); format: functional
[43] = test system: DU-145; assay: Induction of intracellular mitochondrial superoxide generation in human DU145 cells after 48 hrs by MitoSOX staining based fluorescence microscopic method; format: functional, cell-based

With COc1ccc2sc(NC(=O)Cn3cc(C(=O)C(=O)Nc4ccccc4)c4ccccc43)nc2c1 the Activity [1] was 26.89%, the Activity [2] was 57.05% and the Activity [3] was 33.63%. The IC50 [4] was 93 nM, the IC50 [5] was 710 nM and the Activity [6] was 5.89%. The inhibition [7] was 68.5%, the Activity [8] was 5.51% and the inhibition at 0.1 µM [9] was 74.8%. For the same compound, the Activity [10] was 30.15%, the Activity [11] was 3.58% and the Activity [12] was 16.32%. The Activity [13] was 5.88%, the IC50 [14] was 361 nM and the Activity [15] was 64.65%. It also gave an Activity [16] of 8.26%, an Activity [17] of 47.69% and an inhibition at 0.4 µM [18] of 34.8%. For the same compound, the Activity [19] was 84.72%, the inhibition at 0.2 µM [20] was 44% and the Activity [21] was 34.07%. The Activity [22] was “Dose-dependent effect”, the Activity [23] was 16.84% and the Activity [24] was “Dose-dependent effect”. For the same compound, the Activity [25] was “Dose-dependent effect”, the Activity [26] was 50.9% and the inhibition [27] was “Dose-dependent effect”. The Activity [28] was 5.81%, the Activity [29] was “Dose-dependent effect” and the Activity [30] was “Active”. The Activity [31] was “Dose-dependent effect”, the Activity [32] was “Active” and the Activity [33] was 17.37%. The Activity [34] was 5.8%, the IC50 [35] was 2100 nM and the Activity [36] was 4.06%. It also gave an Activity [37] of 51.89%, an IC50 [38] of 180 nM and an Activity [39] of 45.47%. For the same compound, the Activity [40] was 42.39%, the Activity [41] was “Dose-dependent effect” and the Activity [42] was 34.21%. The Activity [43] was “Dose-dependent effect”.
